“Also recorded” adds a separate entry of the source.

Test [1] deals with MCF-7 human breast carcinoma cells. The test is described as follows: microbubble attachment to cells, parallel plate flow chamber. Type of test: cell-based. The note with it: 400×. On the procedure: MCF-7 human breast carcinoma cells (ATCC, Manassas, Va.) were grown on sterile glass cover slips (40 mm) and incubated at 37° C. until they reached 40-60% confluency in a 5% fetal bovine serum/RPMI1640 medium solution.
(§1) To create biotinylated microbubbles, the synthesized biotin-bleomycin A5 ligand was conjugated to Targestar^B Targeted Ultrasound Contrast Agent (Targeson). Four hundred microliters of Coupling Reagent (Targeson) were added to 1.5 mL of conjugated Targestar^B microbubbles and incubated for 20 min at room temperature, with gentle agitation every 5 min. The product was divided into two syringes, rinsed with 1.75 mL of Infusion Buffer, and then centrifuged for 3 min at 400×g (10° C.). The infranatant was then drained to 1 mL. Fifty μL of biotinylated bleomycin A5 was added to one of the vials and both were incubated at room temperature for 20 min with gentle agitation every 5 min. To each sample was added 1.75 mL of Infusion Buffer before centrifugation for 3 min at 400×g (10° C.). This solution was then drained to 1.0 mL before recovery of the supernatant and repetition of the previous step. Finally, the supernatant was resuspended in Infusion Buffer to a final volume of 2.0 mL.
Attachment of the biotinylated microbubble to the cultured MCF-7 breast cancer cells was imaged using an inverted microscope Zeiss Axiovert 200M fitted with an AxioCam MRm camera. Adherent cancer cells on glass cover slips were assembled into a parallel plate flow chamber (Bioptechs FCS2, Micro-Environmental Systems) with a constant temperature maintained at 37° C. The prepared solution of biotinylated microbubbles was introduced into the parallel plate flow chamber via ⅛-inch diameter tubing (Silastic) at a controlled rate of 0.01 mL/min using an adjustable infusion-withdrawal syringe pump (Harvard Apparatus, Holliston, Mass.). A negative control experiment was performed using a preparation of Targestar^B microbubbles without any added biotin-bleomycin A5 ligand. ‘Normal’ human breast MCF-10A cells were used as well for comparison purposes. […]

The subject of test [2] is MCF-10A 'normal' human breast cells. Described as above. The test is classed as cell-based. The note with it: MCF-10A 'normal' breast cells; 400×; FIGS. 5, 9-11. On the procedure:
as §1
Attachment of the biotinylated microbubble to the cultured MCF-7 breast cancer cells was imaged using an inverted microscope Zeiss Axiovert 200M fitted with an AxioCam MRm camera. Adherent cancer cells on glass cover slips were assembled into a parallel plate flow chamber (Bioptechs FCS2, Micro-Environmental Systems) with a constant temperature maintained at 37° C. […]

Consider “biotinylated bleomycin A5 [Biotinylated BLM A5]”, for which the “Targestar B microbubble attachment to cells (microscopy, in words)” value in test [1] (FIGS. 3, 4, 6-8, listed as biotinylated BLM A5) is listed as “selective attachment”; in test [1] (FIGS. 3, 4, 6-8, listed as biotinylated bleomycin), “did promote attachment”; in test [2], “attachment was not observed”.
Regarding biotinylated deglycobleomycin A5, the “Targestar B microbubble attachment to cells (microscopy, in words)” value in test [1] (FIGS. 3, 4, 6-8) is recorded as “does not promote Targestar B microbubble attachment; also recorded: did not reveal the presence of microbubbles attached”; in test [2], “does not promote Targestar B microbubble attachment; also recorded: lack of attachment”.
